# System: B16F10.A24/SART2^93-101 cells
# Experiment: Lung metastatic model: intravenous transplantation of B16F10.A24/SART2^93-101 cells, count of metastatic pulmonary nodules
# Format: in vivo, mouse
# Conditions: B2m^tm2(HLA-A24/H-2Db/B2M)Tai mice; emulsion with Montanide ISA 51 VG subcutaneously on Day 1, Day 8, Day 15; lungs resected Day 28; compared with control group, p=0.0014, Student's t-test
# Description: Eleven-week-old B2m^tm2(HLA-A24/H-2Db/B2M)Tai mice (J. Immunol.: 198, 516-527, 2017) were randomly divided into groups each consisting of 10 mice. The day of grouping was designated Day 0.
# The B16F10.A24/SART2^93-101 cells (PLoS One: 13, e0199249, 2018) were cultured using the Dulbecco's Modified Eagle's Medium (Sigma-Aldrich) containing 10% FBS. The B16F10.A24/SART2^93-101 cells were subjected to subculture in an incubator at 37° C. in the presence of 5% CO2 two times a week at a ratio of 1:25 to 1:40.
# On the day of grouping of mice (Day 0), the B16F10.A24/SART2^93-101 cell suspension prepared using D-PBS (FUJIFILM Wako Pure Chemical Corporation) was transplanted into the tail veins of mice at 1×10^6 cells/0.1 ml.
# The mouse models are found to undergo recurrence of tumor cells transplanted into the blood in the lung. Accordingly, such mouse models can be regarded as simulating the recurrence mechanism caused by cancer metastasis in humans. By verifying the effects in such models, accordingly, the inhibitory effects on tumor metastasis and recurrence can be verified. […]
# The lungs were resected 28 days after transplantation of the B16F10.A24/SART2^93-101 cells (Day 28), and the number of metastatic pulmonary nodules was visually counted.
substance,measurement,value
PEP5-RR-PEP9-RR-PEP6-RR-PEP4 (DYSARWNEIRRQIRPIFSNRRRVYDYNCHVDLRRLLQAEAPRL) [TPV06],number of metastatic pulmonary nodules,significantly reduced

# From patent publication US20230055953A1, “AGENT FOR ADJUVANT THERAPY” (TAIHO PHARMACEUTICAL CO., LTD., priority 2019, published 2023)
